The text below walks through data of patent US20140256756A1, “PIPERIDINYL-SUBSTITUTED LACTAMS AS GPR119 MODULATORS” (Array BioPharma Inc., priority 2011, published 2014).

Structures can show the parent of a compound that is named as a salt.

In this test the test system is modified version of the GPR119 receptor (94% identity to human receptor). Nature of the test: cAMP production assay (LANCE cAMP kit, TR-FRET) in HEK-293 cells. It is filed as cell-based. The settings on record: for cAMP production in HEK-293 cells: HEK-293 cells stably expressing modified GPR119, test compounds 0.2 nM to 10 μM, one-hour incubation; for Fold over baseline: increase in cAMP relative to basal levels, agonist activity if 1.5-fold or greater. On the procedure: The assay utilized HEK-293 cells that stably express a modified version of the GPR119 receptor (94% identity to human receptor), under the control of a CMV promoter containing a tet-on element for tetracycline-inducible expression. GPR119 agonist-induced cyclic AMP (cAMP) production was measured in this cell line using the LANCE cAMP kit (Perkin Elmer, Waltham, Mass.). To generate a working stock of cells for the assay, cells were treated overnight with 1 μg/mL doxycycline at 37° C. in the presence of 5% CO2 to induce receptor expression. Cells were then harvested by enzymatic dissociation with 0.05% trypsin, resuspended in freezing medium (DMEM growth medium with 10% each of fetal bovine serum and DMSO), aliquoted and frozen at −80° C. On the day of the assay, frozen cells were thawed, washed 1× in PBS and resuspended in Hank's buffered salt solution (HBSS) containing 5 mM HEPES, 0.1% BSA and Alexa Fluor 647-conjugated anti-cAMP antibody (diluted 1:100). The cell suspension was then transferred to a Proxiplate Plus white 384-well assay plate (Perkin-Elmer) at 2000 cells/well. Test compounds at final concentrations ranging from 0.2 nM to 10 μM were added to the assay plate, followed by a one-hour incubation at ambient temperature (volume=10 μL/well). DMSO concentration was held constant at 0.5%. After incubation with test compounds, 10 μL, of a detergent buffer containing a biotinylated cAMP/Europium-conjugated streptavidin complex (Europium-labeled cAMP tracer) were added to each well on the assay plate, followed by a 2-hour incubation at ambient temperature. During this incubation cAMP released from lysed cells competes with the Europium-labeled cAMP tracer for binding to the Alexa Fluor 647-conjugated antibody. […] Cellular cAMP levels were then determined by interpolation of raw signal data using a cAMP standard curve. Compounds were determined to have agonist activity if they stimulated a 1.5-fold or greater increase in cAMP relative to basal levels.

`CC(C)(C)c1nsc(N2CCC(N3CCC[C@H](Nc4c(F)cc(S(C)(=O)=O)cc4F)C3=O)CC2)n1` [Example 31]: the “cAMP production in HEK-293 cells” value was 7.6 nmol and the Fold over baseline amounted to 1.9.
On to `CC(C)(C)n1nnc(N2CCC(N3CC[C@H](Oc4ccc(S(C)(=O)=O)cc4F)C3=O)CC2)n1` [Example 95, (S)-1-(1-(2-(tert-butyl)2H-tetrazol-5-yl)piperidin-4-yl)-3-(2-fluoro-4-(methylsulfonyl)phenoxy)pyrrolidin-2-one], for which the “cAMP production in HEK-293 cells” value was determined as 16.7 nmol and the Fold over baseline came to 3.4.
The like results for `CC(C)(C)c1nsc(N2CCC(N3CCC[C@H](Nc4ccc(S(C)(=O)=O)cc4F)C3=O)CC2)n1` [Example 30, (S)-1′-(3-tert-butyl-1,2,4-thiadiazol-5-yl)-3-(2-fluoro-4-(methylsulfonyl)phenylamino)-[1,4′-bipiperidin]-2-one] were, in that order, 13.9 nmol and 2.8.
The like results for `COC(C)(C)c1nsc(N2CCC(N3CC[C@H](Oc4cc(F)c(S(C)(=O)=O)cc4F)C3=O)CC2)n1` [Example 39, (S)-3-(2,5-difluoro-4-(methylsulfonyl)phenoxy)-1-(1-(3-(2-methoxypropan-2-yl)-1,2,4-thiadiazol-5-yl)piperidin-4-yl)pyrrolidin-2-one] were, in that order, 22.4 nmol and 3.7.
The like results for `CC(C)c1nsc(N2CCC(N3CC[C@H](Nc4ccc(S(=O)(=O)C5CC5)cc4F)C3=O)CC2)n1` [Example 4, (S)-3-(4-(cyclopropylsulfonyl)-2-fluorophenylamino)-1-(1-(3-isopropyl-1,2,4-thiadiazol-5-yl)piperidin-4-yl)pyrrolidin-2-one] were, in that order, 24.2 nmol and 4.3.
As for `CS(=O)(=O)c1cc(F)c(OC2CCN(C3CCN(c4nc(-c5ccccc5)ns4)CC3)C2=O)cc1F` (centres unmarked) [Example 48, 3-(2,5-difluoro-4-(methylsulfonyl)phenoxy)-1-(1-(3-phenyl-1,2,4-thiadiazol-5-yl)piperidin-4-yl)pyrrolidin-2-one trifluoroacetate], the “cAMP production in HEK-293 cells” value was found to be 20.5 nmol and the Fold over baseline was 3.3.
The like results for `CC(C)c1nsc(N2CCC(N3CCC(Oc4ccc(S(=O)(=O)CC5CC5)cc4F)C3=O)CC2)n1` (centres unmarked) [Example 44, 3-(4-(Cyclopropylmethylsulfonyl)-2-fluorophenoxy)-1-(1-(3-isopropyl-1,2,4-thiadiazol-5-yl)piperidin-4-yl)pyrrolidin-2-one trifluoroacetate] were, in that order, 23.8 nmol and 3.4.
On to `Cc1cc(S(C)(=O)=O)cnc1N[C@H]1CCN(C2CCN(c3nc(C(C)C)ns3)CC2)C1=O` [Example 17, (S)-1-(1-(3-isopropyl-1,2,4-thiadiazol-5-yl)piperidin-4-yl)-3-(3-methyl-5-(methylsulfonyl)pyridin-2-ylamino)pyrrolidin-2-one], for which the “cAMP production in HEK-293 cells” value stood at 11.2 nmol and the Fold over baseline was determined as 2.1.
The like results for `CC(C)c1nsc(N2CCC(N3CCC(Oc4ccc(C(=O)NCCN(C)C)cc4F)C3=O)CC2)n1` (centres unmarked) [Example 81, N-(2-(dimethylamino)ethyl)-3 fluoro-4-(1-(1-(3-isopropyl-1,2,4-thiadiazol-5-yl)piperidin-4-yl)-2-oxopyrrolidin-3-yloxy)benzamide] were, in that order, 11.7 nmol and 2.4.
The like results for `CC(C)c1nsc(N2CCC(N3CCC(Oc4ccc(S(=O)(=O)C(C)C)cc4F)C3=O)CC2)n1` (centres unmarked) [Example 45, 3-(2-fluoro-4-(isopropylsulfonyl)phenoxy)-1-(1-(3-isopropyl-1,2,4-thiadiazol-5-yl)piperidin-4-yl)pyrrolidin-2-one] were, in that order, 17.8 nmol and 3.5.
